Experimental data reported in patent US20230017045A1, “PYRIDINE AND PYRIMIDINE CARBOXYLATE HERBICIDES AND METHODS OF USE THEREOF” (Dow AgroSciences LLC, priority 2017, published 2023).

System: test plant species
Test: Post-emergent herbicidal activity test (greenhouse, foliar spray, visual growth reduction)
Assay type: in vivo
Conditions: post-emergence, 336 h, ALOMY: blackgrass (Alopecurus myosuroides), 140 g ai/ha, 14 days after application, read-out: Visual Growth Reduction (%) 14 Days After Application, ALOMY
Procedure, shortened: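 Visual scoring 14 d after treatment (0 = no injury, 100 = complete control) against nontreated and solvent-blank plants gave percent growth reduction. Foliar application used a track sprayer delivering 187 L/ha to seedlings at first or second true leaf stage, grown at 23–29 °C day, ~15 h photoperiod.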

Row | SMILES | pest or weed control at 140 g/ha
1 | COC(=O)c1nc(-c2ccc(C3CC3)cc2Cl)ccc1Cl [F15, methyl 3-chloro-6-(2-chloro-4-cyclopropylphenyl)picolinate] | 0 to 29%
2 | COC(=O)c1nc(-c2cc(F)c(C)cc2Cl)ccc1Cl [F46, Methyl 3-chloro-6-(2-chloro-5-fluoro-4-methylphenyl) picolinate] | 0 to 29%

Same assay, conditions: post-emergence, 336 h, AMARE: redroot pigweed (Amaranthus retroflexus), 140 g ai/ha, 14 days after application, read-out: Visual Growth Reduction (%) 14 Days After Application, AMARE

Row | SMILES | pest or weed control at 140 g/ha
3 | COC(=O)c1nc(-c2ccc(C3CC3)cc2Cl)ccc1Cl [F15, methyl 3-chloro-6-(2-chloro-4-cyclopropylphenyl)picolinate] | 30 to 44%
4 | COC(=O)c1nc(-c2cc(F)c(C)cc2Cl)ccc1Cl [F46, Methyl 3-chloro-6-(2-chloro-5-fluoro-4-methylphenyl) picolinate] | 0 to 29%

Same assay, conditions: post-emergence, 336 h, AVEFA: wild oat (Avena fatua), 140 g ai/ha, 14 days after application, read-out: Visual Growth Reduction (%) 14 Days After Application, AVEFA

Row | SMILES | pest or weed control at 140 g/ha
5 | COC(=O)c1nc(-c2ccc(C3CC3)cc2Cl)ccc1Cl [F15, methyl 3-chloro-6-(2-chloro-4-cyclopropylphenyl)picolinate] | 0 to 29%
6 | COC(=O)c1nc(-c2cc(F)c(C)cc2Cl)ccc1Cl [F46, Methyl 3-chloro-6-(2-chloro-5-fluoro-4-methylphenyl) picolinate] | 0 to 29%

Same assay, conditions: post-emergence, 336 h, CHEAL: lambsquarters (Chenopodium album), 140 g ai/ha, 14 days after application, read-out: Visual Growth Reduction (%) 14 Days After Application, CHEAL

Row | SMILES | pest or weed control at 140 g/ha
7 | COC(=O)c1nc(-c2ccc(C3CC3)cc2Cl)ccc1Cl [F15, methyl 3-chloro-6-(2-chloro-4-cyclopropylphenyl)picolinate] | 45 to 59%
8 | COC(=O)c1nc(-c2cc(F)c(C)cc2Cl)ccc1Cl [F46, Methyl 3-chloro-6-(2-chloro-5-fluoro-4-methylphenyl) picolinate] | 60 to 74%

Same assay, conditions: post-emergence, 336 h, CIRAR: canada thistle (Cirsium arvense), 140 g ai/ha, 14 days after application, read-out: Visual Growth Reduction (%) 14 Days After Application, CIRAR

Row | SMILES | pest or weed control at 140 g/ha
9 | COC(=O)c1nc(-c2ccc(C3CC3)cc2Cl)ccc1Cl [F15, methyl 3-chloro-6-(2-chloro-4-cyclopropylphenyl)picolinate] | 0 to 29%
10 | COC(=O)c1nc(-c2cc(F)c(C)cc2Cl)ccc1Cl [F46, Methyl 3-chloro-6-(2-chloro-5-fluoro-4-methylphenyl) picolinate] | 0 to 29%

Same assay, conditions: post-emergence, 336 h, CYPES: yellow nutsedge (Cyperus esculentus), 140 g ai/ha, 14 days after application, read-out: Visual Growth Reduction (%) 14 Days After Application, CYPES

Row | SMILES | pest or weed control at 140 g/ha
11 | COC(=O)c1nc(-c2ccc(C3CC3)cc2Cl)ccc1Cl [F15, methyl 3-chloro-6-(2-chloro-4-cyclopropylphenyl)picolinate] | 30 to 44%
12 | COC(=O)c1nc(-c2cc(F)c(C)cc2Cl)ccc1Cl [F46, Methyl 3-chloro-6-(2-chloro-5-fluoro-4-methylphenyl) picolinate] | 0 to 29%

Same assay, conditions: post-emergence, 336 h, DIGSA: crabgrass (Digitaria sanguinalis), 140 g ai/ha, 14 days after application, read-out: Visual Growth Reduction (%) 14 Days After Application, DIGSA

Row | SMILES | pest or weed control at 140 g/ha
13 | COC(=O)c1nc(-c2ccc(C3CC3)cc2Cl)ccc1Cl [F15, methyl 3-chloro-6-(2-chloro-4-cyclopropylphenyl)picolinate] | 0 to 29%
14 | COC(=O)c1nc(-c2cc(F)c(C)cc2Cl)ccc1Cl [F46, Methyl 3-chloro-6-(2-chloro-5-fluoro-4-methylphenyl) picolinate] | 0 to 29%

Same assay, conditions: post-emergence, 336 h, ECHCG: barnyardgrass (Echinochloa crus-galli), 140 g ai/ha, 14 days after application, read-out: Visual Growth Reduction (%) 14 Days After Application, ECHCG

Row | SMILES | pest or weed control at 140 g/ha
15 | COC(=O)c1nc(-c2cc(F)c(C)cc2Cl)ccc1Cl [F46, Methyl 3-chloro-6-(2-chloro-5-fluoro-4-methylphenyl) picolinate] | 0 to 29%

Same assay, conditions: post-emergence, 336 h, KCHSC: kochia (Bassia scoparia), 140 g ai/ha, 14 days after application, read-out: Visual Growth Reduction (%) 14 Days After Application, KCHSC

Row | SMILES | pest or weed control at 140 g/ha
16 | COC(=O)c1nc(-c2cc(F)c(C)cc2Cl)ccc1Cl [F46, Methyl 3-chloro-6-(2-chloro-5-fluoro-4-methylphenyl) picolinate] | 0 to 29%

Same assay, conditions: post-emergence, 336 h, ORYSA: rice (Oryza sativa), 140 g ai/ha, 14 days after application, read-out: Visual Growth Reduction (%) 14 Days After Application, ORYSA

Row | SMILES | pest or weed control at 140 g/ha
17 | COC(=O)c1nc(-c2cc(F)c(C)cc2Cl)ccc1Cl [F46, Methyl 3-chloro-6-(2-chloro-5-fluoro-4-methylphenyl) picolinate] | 0 to 29%

Same assay, conditions: post-emergence, 336 h, SETFA: giant foxtail (Setaria faberi), 140 g ai/ha, 14 days after application, read-out: Visual Growth Reduction (%) 14 Days After Application, SETFA

Row | SMILES | pest or weed control at 140 g/ha
18 | COC(=O)c1nc(-c2cc(F)c(C)cc2Cl)ccc1Cl [F46, Methyl 3-chloro-6-(2-chloro-5-fluoro-4-methylphenyl) picolinate] | 0 to 29%

Same assay, conditions: post-emergence, 336 h, SORVU: grain sorghum (Sorghum vulgare), 140 g ai/ha, 14 days after application, read-out: Visual Growth Reduction (%) 14 Days After Application, SORVU

Row | SMILES | pest or weed control at 140 g/ha
19 | COC(=O)c1nc(-c2cc(F)c(C)cc2Cl)ccc1Cl [F46, Methyl 3-chloro-6-(2-chloro-5-fluoro-4-methylphenyl) picolinate] | 0 to 29%

Same assay, conditions: post-emergence, 336 h, STEME: common chickweed (Stellaria media), 140 g ai/ha, 14 days after application, read-out: Visual Growth Reduction (%) 14 Days After Application, STEME

Row | SMILES | pest or weed control at 140 g/ha
20 | COC(=O)c1nc(-c2cc(F)c(C)cc2Cl)ccc1Cl [F46, Methyl 3-chloro-6-(2-chloro-5-fluoro-4-methylphenyl) picolinate] | 0 to 29%

Same assay, conditions: post-emergence, 336 h, TRZAS: wheat, spring (Triticum aestivum), 140 g ai/ha, 14 days after application, read-out: Visual Growth Reduction (%) 14 Days After Application, TRZAS

Row | SMILES | pest or weed control at 140 g/ha
21 | COC(=O)c1nc(-c2cc(F)c(C)cc2Cl)ccc1Cl [F46, Methyl 3-chloro-6-(2-chloro-5-fluoro-4-methylphenyl) picolinate] | 0 to 29%

Same assay, conditions: post-emergence, 336 h, barnyardgrass (Echinochloa crus-galli), 14 Days After Application, 140 g ai/ha, read-out: Visual Growth Reduction (%) ECHCG

Row | SMILES | pest or weed control at 140 g/ha
22 | COC(=O)c1nc(-c2ccc(C3CC3)cc2Cl)ccc1Cl [F15, methyl 3-chloro-6-(2-chloro-4-cyclopropylphenyl)picolinate] | 0 to 29%

Same assay, conditions: post-emergence, 336 h, common chickweed (Stellaria media), 14 Days After Application, 140 g ai/ha, read-out: Visual Growth Reduction (%) STEME

Row | SMILES | pest or weed control at 140 g/ha
23 | COC(=O)c1nc(-c2ccc(C3CC3)cc2Cl)ccc1Cl [F15, methyl 3-chloro-6-(2-chloro-4-cyclopropylphenyl)picolinate] | 0 to 29%

Same assay, conditions: post-emergence, 336 h, giant foxtail (Setaria faberi), 14 Days After Application, 140 g ai/ha, read-out: Visual Growth Reduction (%) SETFA

Row | SMILES | pest or weed control at 140 g/ha
24 | COC(=O)c1nc(-c2ccc(C3CC3)cc2Cl)ccc1Cl [F15, methyl 3-chloro-6-(2-chloro-4-cyclopropylphenyl)picolinate] | 0 to 29%

Same assay, conditions: post-emergence, 336 h, ivy-leaf morning glory (Ipomoea hederacea), 14 Days After Application, 140 g ai/ha, read-out: Visual Growth Reduction (%) IPOHE

Row | SMILES | pest or weed control at 140 g/ha
25 | COC(=O)c1nc(-c2ccc(C3CC3)cc2Cl)ccc1Cl [F15, methyl 3-chloro-6-(2-chloro-4-cyclopropylphenyl)picolinate] | 95 to 100%

Same assay, conditions: post-emergence, 336 h, johnsongrass (Sorghum vulgare), 14 Days After Application, 140 g ai/ha, read-out: Visual Growth Reduction (%) SORVU

Row | SMILES | pest or weed control at 140 g/ha
26 | COC(=O)c1nc(-c2ccc(C3CC3)cc2Cl)ccc1Cl [F15, methyl 3-chloro-6-(2-chloro-4-cyclopropylphenyl)picolinate] | 0 to 29%

Same assay, conditions: post-emergence, 336 h, kochia (Bassia scoparia), 14 Days After Application, 140 g ai/ha, read-out: Visual Growth Reduction (%) KCHSC

Row | SMILES | pest or weed control at 140 g/ha
27 | COC(=O)c1nc(-c2ccc(C3CC3)cc2Cl)ccc1Cl [F15, methyl 3-chloro-6-(2-chloro-4-cyclopropylphenyl)picolinate] | 0 to 29%

Same assay, conditions: post-emergence, 336 h, rice (Oryza sativa), 14 Days After Application, 140 g ai/ha, read-out: Visual Growth Reduction (%) ORYSA

Row | SMILES | pest or weed control at 140 g/ha
28 | COC(=O)c1nc(-c2ccc(C3CC3)cc2Cl)ccc1Cl [F15, methyl 3-chloro-6-(2-chloro-4-cyclopropylphenyl)picolinate] | 0 to 29%

Same assay, conditions: post-emergence, 336 h, wheat, spring (Triticum aestivum), 14 Days After Application, 140 g ai/ha, read-out: Visual Growth Reduction (%) TRZAS

Row | SMILES | pest or weed control at 140 g/ha
29 | COC(=O)c1nc(-c2ccc(C3CC3)cc2Cl)ccc1Cl [F15, methyl 3-chloro-6-(2-chloro-4-cyclopropylphenyl)picolinate] | 0 to 29%
